Measured values reported in article PMC7794939, “Discovery of Monoacylglycerol Lipase (MAGL) Inhibitors Based on a Pharmacophore-Guided Virtual Screening Study” (Molecules, 2020).

Assays:
Format in all cases: biochemical
Human recombinant MAGL [1] = biological target: T1, Human recombinant MAGL (Homo sapiens, UniProt Q99685); assay: MAGL enzyme inhibition assay (4-NPA substrate, absorbance 405 nm); conditions: 30 min, rt, pH 7.2
T1 construct: purchased Cayman Chemical (Ann Arbor, MI, USA)
T1 sequence (Q99685 1-303): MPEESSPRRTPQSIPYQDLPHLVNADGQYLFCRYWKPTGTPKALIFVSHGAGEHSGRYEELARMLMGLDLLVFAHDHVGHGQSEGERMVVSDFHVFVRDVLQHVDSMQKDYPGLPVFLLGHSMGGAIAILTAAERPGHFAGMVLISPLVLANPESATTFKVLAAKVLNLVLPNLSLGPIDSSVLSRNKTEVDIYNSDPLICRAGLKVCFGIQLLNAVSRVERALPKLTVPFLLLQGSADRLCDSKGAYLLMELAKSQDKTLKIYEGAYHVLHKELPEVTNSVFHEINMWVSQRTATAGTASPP
Protocol: Human recombinant MAGL and 4-nitrophenyl acetate substrate (4-NPA) were bought from Cayman Chemical (Ann Arbor, MI, USA). […] The IC50 values were produced in 96-well microtiter plates. The MAGL reaction was carried out at rt at a final volume of 200 µL in 10 mM Tris buffer, pH 7.2, containing 1 mM EDTA and 0.1 mg/mL BSA. […] The reaction was started by adding 40 µL of MAGL (11 ng/well) in such a way that the assay was linear over 30 min. […] Two more reactions were carried out: one reaction containing no compounds and the second one containing neither enzyme nor inhibitor.

Human recombinant MAGL [2] = biological target: T1, Human recombinant MAGL; assay: MAGL inhibition with or without the thiol-containing agent DTT
Protocol: (§1) Furthermore, with the aim of establishing whether the mechanism of inhibition was reversible or irreversible, the effects of preincubation on the inhibitory activity of compounds VS1 and VS2 were evaluated. In this assay, the compounds were preincubated with the enzyme for 0, 30 and 60 min before adding the substrate to start the enzymatic reaction. An irreversible inhibitor should show a higher potency after longer incubation times, whereas a reversible inhibitor should display a constant inhibition potency that is independent from the incubation time. […] Taken together, these experimental studies, aimed at better characterizing the mode of action of compounds VS1 and VS2, further supported the reliability of the binding mode predicted for the two ligands.
Human recombinant MAGL and 4-nitrophenyl acetate substrate (4-NPA) were bought from Cayman Chemical (Ann Arbor, MI, USA). The reversible compound 17b reported by Granchi et al. in 2016 was synthesized in our laboratory and used as reference compound [19]. Compound 3l was synthesized in our laboratory according to the procedure reported by Aida et al. and used as reference compound. The IC50 values were produced in 96-well microtiter plates. The MAGL reaction was carried out at rt at a final volume of 200 µL in 10 mM Tris buffer, pH 7.2, containing 1 mM EDTA and 0.1 mg/mL BSA. A total of 150 µL of 4-NPA 133.3 µM was added to 10 µL of DMSO containing the appropriate amount of compound. The reaction was started by adding 40 µL of MAGL (11 ng/well) in such a way that the assay was linear over 30 min. After the reaction had progressed for 30 min, absorbance values were measured by using a VictorX3 instrument (PerkinElmer, Waltham, MA, USA) at 405 nm. Two more reactions were carried out: one reaction containing no compounds and the second one containing neither enzyme nor inhibitor. To remove possible false positive results, a blank analysis was performed for each compound concentration and the final absorbance results were obtained detracting the absorbance produced by the presence of all the components except MAGL in the same conditions.

Human recombinant MAGL [3] = biological target: T1, Human recombinant MAGL; assay: MAGL inhibition after preincubation of compound with enzyme (reversibility); conditions: preincubated with the enzyme for 0, 30 and 60 min before adding the substrate
Protocol: as §1
Human recombinant MAGL and 4-nitrophenyl acetate substrate (4-NPA) were bought from Cayman Chemical (Ann Arbor, MI, USA). […] After the reaction had progressed for 30 min, absorbance values were measured by using a VictorX3 instrument (PerkinElmer, Waltham, MA, USA) at 405 nm. […] To remove possible false positive results, a blank analysis was performed for each compound concentration and the final absorbance results were obtained detracting the absorbance produced by the presence of all the components except MAGL in the same conditions.

[4] = assayed in the absence of DTT, read-out: IC50 in the absence of DTT
[5] = assayed in the presence of 10 µM DTT, read-out: IC50 in the presence of DTT

Compound	IC50 (Human recombinant MAGL [1]) [µM]	IC50 (Human recombinant MAGL [2]; [4]) [µM]	IC50 (Human recombinant MAGL [2]; [5]) [µM]	Effect of preincubation time on inhibitory potency (reversible or irreversible mechanism) (Human recombinant MAGL [3])
O=C(c1ccc(Cl)cc1)C1CCN(C(=O)c2cccc(O)c2)CC1 [Compound 17b, reference compound]	0.9 ± 0.08			
O=C(c1ccco1)N1CCN(C2=CC(=O)N(c3cccc(Cl)c3)C2=O)CC1 [VS2]	48.9 ± 4.2	47.5	49.5	did not show any significant increase in inhibitory potency at longer incubation times
O=C(c1ccco1)N1CCN(C2CC(=O)N(c3cccc(Cl)c3)C2=O)CC1 (stereo not shown) [VS4]	138 ± 11			
O=C(Nc1nnc(C2CC(=O)N(c3ccccc3)C2)s1)c1cccc(Br)c1 (stereo not shown) [VS6]	> 200			

Further lines, with some results ahead:

IC50 (Human recombinant MAGL [1]) [µM]	IC50 (Human recombinant MAGL [2]; [4]) [µM]	IC50 (Human recombinant MAGL [2]; [5]) [µM]	Compound	Effect of preincubation time on inhibitory potency (reversible or irreversible mechanism) (Human recombinant MAGL [3])
79.4 ± 6.3			CC(C)c1ccc(OCC(=O)Nc2ccc(-c3nc4ccccc4c(=O)o3)cc2)cc1 [VS3]	
> 200			O=C1c2ccc(-c3nc4ccccc4c(=O)o3)cc2C(=O)N1Cc1ccc(Cl)cc1 [VS5]	
34.7 ± 2.4	35.4	34.1	Cc1cc(=O)[nH]c(-c2ccc(NS(=O)(=O)c3ccc(F)cc3Cl)cc2)n1 [VS1]	did not show any significant increase in inhibitory potency at longer incubation times
